In PubChem BioAssay AID248 (DTP/NCI, 2004):
“And” between values parts separate entries of the source, which are not always exact repeats. Equal entries are not always repeated. Toxic doses and inconclusive results are not listed. Square brackets hold non-standard residues; d marks the D form. Peptide text beside a SMILES is read from it. * marks the point of attachment. ξ: configuration not given here. ξF = NC(Cc1ccccc1)C(=O)O; Cbz = O=C(OCc1ccccc1)*

Test system: L1210 leukemia ip in BDF1 mice, survival T/C
Assay: NCI In Vivo Anticancer Drug Screen. Data for tumor model L1210 Leukemia (intraperitoneal) in B6D2F1 (BDF1) mice
Conditions: endpoint: mean survival time, higher = longer survival
How it was run: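 Mice bearing the transplanted tumor received compound or vehicle. Survival of the treated group was divided by that of the vehicle-treated control group to give the ratio.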

[1] = dose: 100.0 mg/kg/injection, schedule: Q04DX003 (ip), vehicle: saline
[2] = dose: 200.0 mg/kg/injection, schedule: Q04DX003 (ip), vehicle: saline
[3] = dose: 400.0 mg/kg/injection, schedule: Q04DX003 (ip), vehicle: saline
[4] = dose: 100.0 mg/kg/injection, schedule: Q01DX009 (ip), vehicle: saline with Tween-80
[5] = dose: 100.0 mg/kg/injection, schedule: Q04DX003 (ip), vehicle: saline with Tween-80
[6] = dose: 200.0 mg/kg/injection, schedule: Q01DX009 (ip), vehicle: saline with Tween-80
[7] = dose: 200.0 mg/kg/injection, schedule: Q04DX003 (ip), vehicle: saline with Tween-80
[8] = dose: 400.0 mg/kg/injection, schedule: Q04DX003 (ip), vehicle: saline with Tween-80
[9] = dose: 100.0 mg/kg/injection, schedule: Q01DX001 (ip), vehicle: saline
[10] = dose: 400.0 mg/kg/injection, schedule: Q01DX001 (ip), vehicle: saline
[11] = dose: 100.0 mg/kg/injection, schedule: Q01DX001 (ip), vehicle: carboxymethylcellulose (CMC)
[12] = dose: 200.0 mg/kg/injection, schedule: Q01DX001 (ip), vehicle: carboxymethylcellulose (CMC)
[13] = dose: 400.0 mg/kg/injection, schedule: Q01DX001 (ip), vehicle: carboxymethylcellulose (CMC)
[14] = dose: 100.0 mg/kg/injection, schedule: Q01DX009 (ip), vehicle: Klucel (hydroxypropylcellulose) (HPC)
[15] = dose: 100.0 mg/kg/injection, schedule: Q04DX003 (ip), vehicle: Klucel (hydroxypropylcellulose) (HPC)
[16] = dose: 200.0 mg/kg/injection, schedule: Q01DX009 (ip), vehicle: Klucel (hydroxypropylcellulose) (HPC)
[17] = dose: 200.0 mg/kg/injection, schedule: Q04DX003 (ip), vehicle: Klucel (hydroxypropylcellulose) (HPC)
[18] = dose: 400.0 mg/kg/injection, schedule: Q04DX003 (ip), vehicle: Klucel (hydroxypropylcellulose) (HPC)
[19] = dose: 400.0 mg/kg/injection, schedule: Q01DX009 (ip), vehicle: Klucel (hydroxypropylcellulose) (HPC)
[20] = dose: 75.0 mg/kg/injection, schedule: Q01DX001 (ip), vehicle: saline
[21] = dose: 150.0 mg/kg/injection, schedule: Q01DX001 (ip), vehicle: saline

## CCC(C(=O)O)c1ccccc1 (configuration not stated)
dose: 50.0 mg/kg/injection, schedule: Q01DX009 (ip), vehicle: saline
  T/C: 93 % of control
dose: 100.0 mg/kg/injection, schedule: Q01DX009 (ip), vehicle: saline
  T/C: 97 % of control
[1]
  T/C: 89 % of control
dose: 200.0 mg/kg/injection, schedule: Q01DX009 (ip), vehicle: saline
  T/C: 90 % of control
[2]
  T/C: 90 % of control
[3]
  T/C: 95 % of control

## N#CC1CCCC1=O (configuration not stated)
dose: 5.0 mg/kg/injection, schedule: Q01DX009 (ip), vehicle: saline
  T/C: 97 % of control
dose: 10.0 mg/kg/injection, schedule: Q01DX009 (ip), vehicle: saline
  T/C: 101 % of control
dose: 20.0 mg/kg/injection, schedule: Q01DX009 (ip), vehicle: saline
  T/C: 106 % of control

## CC1=NN(c2cccc(Cl)c2)C(=O)C1
dose: 50.0 mg/kg/injection, schedule: Q04DX003 (ip), vehicle: saline with Tween-80
  T/C: 105 % of control
[4]
  T/C: 93 % of control
[5]
  T/C: 94 % of control
[6]
  T/C: 106 % of control
[7]
  T/C: 96 % of control and 92 % of control
[8]
  T/C: 94 % of control

## Cc1ccc(S(=O)(=O)NC(=O)N(C)c2cc(N3CCCC3)ccn2)cc1
[9]
  T/C: 102 % of control
dose: 200.0 mg/kg/injection, schedule: Q01DX001 (ip), vehicle: saline
  T/C: 96 % of control
[10]
  T/C: 100 % of control

## CCCCCCCC(=O)N(CCN(N=O)C(=O)CCCCCCC)N=O
[9]
  T/C: 95 % of control
[10]
  T/C: 90 % of control

## O=C(O)c1ccc(N=NSc2ncnc3nc[nH]c23)cc1O
dose: 2.5 mg/kg/injection, schedule: Q01DX Z (ip), vehicle: carboxymethylcellulose (CMC)
  T/C: 150 % of control
dose: 5.0 mg/kg/injection, schedule: Q01DX Z (ip), vehicle: carboxymethylcellulose (CMC)
  T/C: 116 % of control
dose: 10.0 mg/kg/injection, schedule: Q01DX Z (ip), vehicle: carboxymethylcellulose (CMC)
  T/C: 116 % of control
dose: 20.0 mg/kg/injection, schedule: Q01DX Z (ip), vehicle: carboxymethylcellulose (CMC)
  T/C: 107 % of control
dose: 40.0 mg/kg/injection, schedule: Q01DX015 (ip), vehicle: carboxymethylcellulose (CMC)
  T/C: 88 % of control

## NC(CSS(=O)(=O)O)=NC1CC2CCC1C2 (configuration not stated)
dose: 6.25 mg/kg/injection, schedule: Q01DX001 (ip), vehicle: saline
  T/C: 97 % of control
dose: 6.25 mg/kg/injection, schedule: Q01DX009 (ip), vehicle: Klucel (hydroxypropylcellulose) (HPC)
  T/C: 98 % of control
dose: 6.25 mg/kg/injection, schedule: Q01DX009 (ip), vehicle: saline
  T/C: 95 % of control and 103 % of control
dose: 6.25 mg/kg/injection, schedule: Q04DX002 (ip), vehicle: saline
  T/C: 112 % of control and 117 % of control
dose: 12.5 mg/kg/injection, schedule: Q01DX001 (ip), vehicle: saline
  T/C: 95 % of control
dose: 12.5 mg/kg/injection, schedule: Q01DX009 (ip), vehicle: Klucel (hydroxypropylcellulose) (HPC)
  T/C: 95 % of control
dose: 12.5 mg/kg/injection, schedule: Q01DX009 (ip), vehicle: saline
  T/C: 100 % of control and 91 % of control
dose: 12.5 mg/kg/injection, schedule: Q04DX002 (ip), vehicle: Klucel (hydroxypropylcellulose) (HPC)
  T/C: 100 % of control
dose: 12.5 mg/kg/injection, schedule: Q04DX002 (ip), vehicle: saline
  T/C: 101 % of control and 87 % of control
dose: 25.0 mg/kg/injection, schedule: Q01DX001 (ip), vehicle: saline with Tween-80
  T/C: 112 % of control
dose: 25.0 mg/kg/injection, schedule: Q01DX001 (ip), vehicle: saline
  T/C: 92 % of control
dose: 25.0 mg/kg/injection, schedule: Q01DX009 (ip), vehicle: Klucel (hydroxypropylcellulose) (HPC)
  T/C: 104 % of control
dose: 25.0 mg/kg/injection, schedule: Q01DX009 (ip), vehicle: saline
  T/C: 94 % of control and 88 % of control
dose: 25.0 mg/kg/injection, schedule: Q04DX002 (ip), vehicle: Klucel (hydroxypropylcellulose) (HPC)
  T/C: 92 % of control
dose: 50.0 mg/kg/injection, schedule: Q04DX002 (ip), vehicle: saline
  T/C: 117 % of control

## CC(Br)C(=O)NC(CC(N)=O)C(=O)O (configuration not stated)
[4]
  T/C: 93 % of control
[6]
  T/C: 91 % of control

## c1ccc2c(c1)nc1n2CCC1
[11]
  T/C: 96 % of control
[12]
  T/C: 98 % of control
[13]
  T/C: 102 % of control

## C1SCSCS1
dose: 100.0 mg/kg/injection, schedule: Q04DX002 (ip), vehicle: Klucel (hydroxypropylcellulose) (HPC)
  T/C: 104 % of control
dose: 200.0 mg/kg/injection, schedule: Q04DX002 (ip), vehicle: Klucel (hydroxypropylcellulose) (HPC)
  T/C: 96 % of control
dose: 400.0 mg/kg/injection, schedule: Q04DX002 (ip), vehicle: Klucel (hydroxypropylcellulose) (HPC)
  T/C: 93 % of control

## COC(=O)C(Cc1ccccc1)NC(=O)CNC(=O)CNC(=O)OCc1ccccc1 (stereo not drawn) (Cbz-Gly-Gly-[ξF]-OMe)
dose: 100.0 mg/kg/injection, schedule: Q04DX003 (ip), vehicle: other
  T/C: 98 % of control
dose: 200.0 mg/kg/injection, schedule: Q04DX003 (ip), vehicle: other
  T/C: 97 % of control
dose: 400.0 mg/kg/injection, schedule: Q04DX003 (ip), vehicle: other
  T/C: 106 % of control

## C1=CC2CC1CC2CNCCN1CC1 (configuration not stated)
dose: 10.0 mg/kg/injection, schedule: Q04DX003 (ip), vehicle: saline
  T/C: 106 % of control
dose: 20.0 mg/kg/injection, schedule: Q04DX003 (ip), vehicle: saline
  T/C: 87 % of control

## CC1(CCl)OCCO1
[14]
  T/C: 91 % of control
[15]
  T/C: 100 % of control
[16]
  T/C: 96 % of control
[17]
  T/C: 101 % of control
[18]
  T/C: 98 % of control

## Cc1c2ccc3ccccc3c2cc2cccc(Cl)c12
dose: 100.0 mg/kg/injection, schedule: Q01DX001 (ip), vehicle: Klucel (hydroxypropylcellulose) (HPC)
  T/C: 97 % of control
dose: 200.0 mg/kg/injection, schedule: Q01DX001 (ip), vehicle: Klucel (hydroxypropylcellulose) (HPC)
  T/C: 98 % of control
dose: 400.0 mg/kg/injection, schedule: Q01DX001 (ip), vehicle: Klucel (hydroxypropylcellulose) (HPC)
  T/C: 101 % of control

## CCCc1nc2c(=O)[nH]cnc2o1
[5]
  T/C: 89 % of control
[7]
  T/C: 95 % of control
[8]
  T/C: 101 % of control

## CC(C)c1ccc(/C=C2\N=C(c3ccc([N+](=O)[O-])cc3)OC2=O)cc1
[14]
  T/C: 100 % of control
[16]
  T/C: 100 % of control
[19]
  T/C: 98 % of control

## O=c1[nH]c(=O)[nH]c(=O)[nH]1
[14]
  T/C: 100 % of control
[1]
  T/C: 90 % of control
[16]
  T/C: 91 % of control
[2]
  T/C: 90 % of control
[19]
  T/C: 101 % of control
[3]
  T/C: 98 % of control

## Cc1nc(/N=N/c2nc(C)c(C)[nH]2)[nH]c1C
[14]
  T/C: 95 % of control
[15]
  T/C: 88 % of control
[16]
  T/C: 104 % of control
[17]
  T/C: 93 % of control
[19]
  T/C: 92 % of control
[18]
  T/C: 93 % of control

## CNC(=O)c1ccc[n+](Cc2ccccc2)c1
dose: 18.75 mg/kg/injection, schedule: Q01DX009 (ip), vehicle: saline
  T/C: 94 % of control
dose: 37.5 mg/kg/injection, schedule: Q01DX009 (ip), vehicle: saline
  T/C: 100 % of control
dose: 37.5 mg/kg/injection, schedule: Q04DX003 (ip), vehicle: saline
  T/C: 97 % of control
[20]
  T/C: 106 % of control
dose: 75.0 mg/kg/injection, schedule: Q01DX009 (ip), vehicle: saline
  T/C: 92 % of control
dose: 75.0 mg/kg/injection, schedule: Q04DX003 (ip), vehicle: saline
  T/C: 101 % of control
[21]
  T/C: 101 % of control
dose: 150.0 mg/kg/injection, schedule: Q04DX003 (ip), vehicle: saline
  T/C: 100 % of control

## ClC1(c2ccccc2)C2CCCCC21 (configuration not stated)
[20]
  T/C: 100 % of control
[21]
  T/C: 100 % of control

## COc1ccc(C=Nc2cccc(O)c2)cc1
[11]
  T/C: 95 % of control
[12]
  T/C: 95 % of control
[13]
  T/C: 92 % of control
